{"source": "patent US8859235B2", "about": "“Methods in cell cultures, and related inventions, employing certain additives” (priority 2009, dated 2014)", "key": {"E. coli HM125": {"test_system": "E. coli HM125", "assay": "Growth and expression of FimH-CRD in E. coli HM125, shake flask cultivation in mineral medium", "type": "cell-based, Escherichia coli", "conditions": "for mg FimH/g cell: control 0.81; for FimH / Cell pellet: mean of triplicate; for FimH: control 6.48 ± 0.36; for Cell pellet: control 7.99 ± 0.25", "from_the_text": "Standard molecular techniques are used for the cloning of the FimH carbohydrate recognition domain (FimH-CRD). The plasmid pfimHs-trc, encoding FimH lectin domain (1-156 amino acids M. Vetsch P et. al. 2002—J. Mol. Biol. 322: 827-840), is kindly provided by R. Glockshuber (ETH Zürich, Switzerland). The FimH-CRD fragment is amplified by polymerase chain reaction using specific forward primer containing the restriction site NdeI and a specific reverse primer containing the thrombin cleavage site and the restriction site XhoI, respectively. The insert is ligated into the corresponding cloning site in pET21b. The resulting contrast is named pET21b-FimH-CRD.\nPrecultures are prepared in 25 mL sterile LB medium [Tryptone (10.0 g/L), yeast extract (5.0 g/L), NaCl (10.0 g/L), ampicillin 100 (mg/L); adjusted to pH 7.0 with NaOH]. Cultures are inoculated with a glycerol stock stored at −80° C. of the protease deficient strain E. coli HM125 (Meerman H J & Georgiou G. 1994. Biotechnology (NY) 2, 1107-1110) harboring the plasmid pET21b-FimH-CRD Vector. Precultures are incubated at 37° C. for 10-12 h. Experimental cultures are performed in a volume of 500 mL of modified M9 medium [Na2HPO4×7H2O (12.8 g/L), KH2PO4 (3 g/L), NaCl (0.5 g/L), NH4Cl (1 g/L), D-glucose (4 g/L), MgSO4 (0.12 g/L), CaCl2 (0.01 g/L) and vitamins (in mg/L): riboflavin (0.1), choline chloride (1), folic Acid (1), niacinamide (1), p-amino benzoic acid (1), pyridoxal-HCl (1), thiamine-HCl (1), myo-lnositol (2)] supplemented with 100 mg/L ampicillin. Cultures are inoculated with 5 mL of the preoculture and grown at 30° C. and 150 rpm) until the optical density at 600 nm (0D600) reached 0.8-1.0. Then 1 mM IPTG and the stabilizer(s) (obligatory additive) according to the invention are added to final concentrations of 5, 10 and 20 mM as indicated from sterile stock solutions and the cultures are grown overnight. Then the cells are cooled on ice for 5 min and harvested by centrifugation at 5′000 rpm for 20 min at 4° C. Cell are harvested by centrifugation and biomass is quantified by weighing the wet cell pellets. The pellet is suspended in a cold solution of 50 mM Tris-HCl, pH 7.5, 150 mM NaCl, 5 mM EDTA, 1 mg/mL polymyxin B sulfate and stirred for two hours at 4° C. After centrifugation at 11′000 rpm for 20 min at 4° C., the supernatant (periplasmic extract) is dialyzed overnight against 50 mM NaH2PO4, 300 mM NaCl and 10 mM imidazole, pH 8 (binding buffer) and applied to a Ni-NTA column (Sigma, Buchs, Switzerland) attached to a BioLogic fast protein liquid chromatography system (BioRad, Reinach BL, Switzerland). The column is washed with binding buffer and afterwards eluted with 50 mM NaH2PO4, 300 mM NaCl and 250 mM imidazole, pH 8 (elution buffer). Fractions containing FimH-CRD-Th-6H is are pooled and dialyzed against water and then against 20 mM HEPES, 150 mM NaCl and 1 mM CaCl2, pH 7.4.\nThe concentration of protein is determined by HPLC method (Agilent 1100/1200 series) using BSA as standard (Sigma). The column Poros R1/10 10 μm (100×2 mm, Morvay Analytik) is kept at 60° C.; eluents are A: 0.1% trifluoroacetic acid (TFA) in H2O and B: 90% MeCN+0.09% TFA. A gradient of 20% B to 90% B is run within 20 min at a flow rate of 0.2 mL/min. The detection is monitored at 210 nm. Results are compiled in the following tables 5 and 6."}, "human cancer cells": {"test_system": "human cancer cells", "conditions": "due to SAPK and p38 MAPK signal pathway modulation; US 2004/024025; cited from earlier work"}}}
{"smiles": "CC1(C)CCCC(C)(C)N1[O]", "note": "[TEMPO, 2,2,6,6-Tetramethyl-1-piperidinyloxy radical, reference compound]", "values": [{"measurement": "mg FimH/g cell", "setting": "E. coli HM125; additive 5 mM", "value": 1.14, "unit": "mg FimH/g cell"}, {"measurement": "FimH", "setting": "E. coli HM125; additive 5 mM", "value": "8.85 ± 0.21", "unit": "mg/L"}, {"measurement": "Cell pellet", "setting": "E. coli HM125; additive 5 mM", "value": "7.78 ± 0.45", "unit": "g/L"}, {"measurement": "mg FimH/g cell", "setting": "E. coli HM125; additive 10 mM", "value": 1.15, "unit": "mg FimH/g cell"}, {"measurement": "FimH", "setting": "E. coli HM125; additive 10 mM", "value": "8.61 ± 0.14", "unit": "mg/L"}, {"measurement": "Cell pellet", "setting": "E. coli HM125; additive 10 mM", "value": "7.44 ± 0.32", "unit": "g/L"}, {"measurement": "mg FimH/g cell", "setting": "E. coli HM125; additive 20 mM", "value": 1.26, "unit": "mg FimH/g cell"}, {"measurement": "FimH", "setting": "E. coli HM125; additive 20 mM", "value": "8.26 ± 0.54", "unit": "mg/L"}, {"measurement": "Cell pellet", "setting": "E. coli HM125; additive 20 mM", "value": "6.54 ± 0.2", "unit": "g/L"}, {"measurement": "Apoptosis in human cancer cells", "setting": "human cancer cells", "value": "increased apoptosis"}]}
